Laboratory results: patent publication US10765755B1, “Preparation and characterization of methylene blue nanoparticles for Alzheimer's disease and other tauopathies” (University of South Florida, priority 2013, dated 2020)

Assays:
[1] = tested on: endogenous Tau in human neuroblastoma SHSY-5Y cells; test: Tau levels by immunoblotting in SHSY-5Y cells; assay type: cell-based; details: 5 μM and 10 μM, 24 hours, immunoblot
Experimental: (§1) Endogenous Tau expressing human neuroblastoma SHSY5Y cells and Hela cells stably overexpressing wild-type human tau were maintained in OptiMEM media supplemented with fetal bovine serum and antibiotic solution as described previously. In six-well plates, cells were treated with control or MB-NPs for 24 hours. Cells were harvested and processed for immunoblotting as described previously.
(§2) To test the functionality of newly generated NPs, two different cell culture-based AD models were utilized. Endogenously tau expressing SHSHY neuronal cells and stably tau overexpressing HeLa cells were treated with 5 μM and 10 μM of MB-NPs, coated MB-NPs, control NPs, vehicle, and/or drug MB-solution for 24 hours. Cells were harvested, and samples were analyzed for tau levels by immunoblotting (FIG. 4).

[2] = tested on: human Tau stably over-expressed in HeLa cells; test: Tau levels by immunoblotting in HeLa cells overexpressing tau; assay type: cell-based; details: HeLa cells over-expressing tau, 5 μM and 10 μM, 24 hours, immunoblot
Experimental: as §1, §2

[3] = tested on: co-culture of rat brain endothelial 4 (RBE4) and C6 astrocytoma cells; test: In vitro blood-brain barrier Transwell permeation assay; assay type: in vitro ADME; details: 10 μM, 0, 3, 6 and 24 hours, UV 600 nm, n=3
Experimental: Transwell Permeable Supports (CORNING) with a 0.4 μm pore size were purchased to investigate the permeability of MB nanoparticles across the blood-brain barrier (BBB) (FIG. 5). Each side was coated with 0.1% rat tail collagen I solution diluted from the purchased 100 mg solution (Collagen I, rat tail, 100 mg, BD BIOSCIENCES), left under the hood to adhere to the support for 1 hour, and washed with […] of 1×PBS after aspiration of the remaining collagen solution. The media used was a 1:1 solution of Ham's F10:MEM media (CELLGRO) supplemented with 10% fetal bovine serum (FBS) (INVITROGEN), 1% penicillin and streptomycin (CELLGRO), 0.4 mL of 1 ng/mL human recombinant diluted basic fibroblast growth factor (bFGF) (BD Biosciences), 5 mL of HEPES buffer (FISHER), and 2 mL of a 200 mM stock of L-glutamine (MEDIATECH). 1.5 mL of media was added surrounding the support, and 0.5 mL was added inside the support. This was left to incubate in the incubator (37° C. and 5% CO2) for 24 hours.
After 24 hours, the media was aspirated from the plates. […]
Subsequently, the media was aspirated and replaced with equal amounts of 1% FBS experimental media. […] The samples were quantified by UV spectrometry in the SYNERGY H4 plate reader (BIOTEK INSTRUMENTS Inc.) at a wavelength of 600 nm. Data was quantified in triplicates and averaged (n=3).

## CN(C)c1ccc2nc3ccc(=[N+](C)C)cc-3sc2c1 [MB solution, Methylene blue]
[1]
  Reduction in tau level (in words): reduce tau levels slightly higher at 10 μM compared to 5 μM
[2]
  Reduction in tau level (in words): reduce tau levels slightly higher at 10 μM compared to 5 μM
[3]
  Permeation across simulated BBB (in words): remained relatively constant
